Experiments:
XPO1 = target: T1, XPO1 (Homo sapiens, UniProt O14980); experiment: XPO1 degradation assay in HT1080 cells (Western blot); assay type: cell-based; conditions: five concentrations, 24 hours
T1 construct: endogenous in cells; host or cells: HT1080 (fibrosarcoma) cells
Source text: Western blot analysis of cellular lysates of the treated cells was used to determine the protein expression of XPO1. Beta-actin was used as a loading control.

[1] = test system: anti-collagen antibody-induced arthritis; experiment: Collagen antibody-induced arthritis (CAIA) mouse model; assay type: in vivo
Method: On study Day 0 (study commencement), all mice were subjected to a 4 mg intravenous injection of ArthritoMAb™ antibody cocktail (MD Biosciences #51306001), followed by an intraperitoneal injection of LPS (50 μg/mouse) on study Day 3. The mice began treatment on Day 6, when the average clinical scores reached 2.
The animals were examined for signs of arthritis on study Day 0 in all paws (front left and right paws, hind left and right paws). The signs of arthritis on study Day 0 served as a baseline for the arthritis clinical score parameter. Arthritic responses were examined daily from Day 3 until Day 8, and on Days 10, 12, 15 and 18 (study termination).
Clinical signs data are presented as means±SEM (standard error of the mean). Treatment groups 2-3 were compared to vehicle group 1 using one-way ANOVA test followed by Tukey post-test. A p value of <0.05 is considered to represent a significant difference.

[2] = test system: XPO1 cargo proteins: p53, IκB, Foxo1A, PP2A, p21 and p27; experiment: XPO1 cargo localization assay in U2OS cells (immunofluorescence); assay type: cell-based; conditions: 500 nM, 4 to 24 hours
Method: The fixed cells were analyzed by immunofluorescence (IF) for the nuclear localization of the following XPO1 cargo proteins: p53, IκB, Foxo1A, PP2A, p21 and p27. Nuclei were stained with DAPI. Images were taken at 20× magnification.

Hep 3B xenograft = experiment: Hep3B hepatocellular carcinoma xenograft model; assay type: in vivo, mouse
Method: Hep 3B cells (ATCC #HTB-8064) hepatocellular carcinoma cells were obtained from ATCC. These cells were grown in DMEM medium supplemented with 10% fetal bovine serum, 1% penicillin and streptomycin. Cells were sub-cultured by dilution at a ratio of 1:4. Hep3B cells were harvested by centrifugation and counted using a hemocytometer. Cells were resuspended in PBS at a concentration of 5×10^7 cells per mL. Cells were placed on ice, and then mixed with an equal volume of Matrigel™ (BD Biosciences CB-40234). This mixture was kept on ice and injected into the left flank of mice in a volume of 0.2 mL, equivalent to 5×10^6 cells per mouse. Thirty-two (32) SCID mice were inoculated subcutaneously in the left flank with 5×10^6 Hep 3B cells. Treatment was initiated when the tumors reached a mean volume of 103.7 mm^3 (standard deviation±30 mm^3, range 17-183 mm^3). Mice were allocated to four (4) groups of eight (8) mice such that mean tumor volume in each group was within the range of 95 to 104 mm^3. […] With the exception of doxorubicin (which was given IP), all compounds were given by oral gavage. […] Animal weights and conditions were recorded daily, and tumors were measured on Mondays, Wednesdays and Fridays.

MDA-MB-468 xenograft = MDA-MB-468 xenograft model; assay type: in vivo, mouse; conditions: 10 mg/kg PO once daily, CB-17 SCID mice, compared to vehicle
Method: MDA-MB-468 (ATCC #HTB-102) breast adenocarcinoma cells were obtained from ATCC. These cells were grown in high glucose DMEM medium supplemented with 10% fetal bovine serum, 1% penicillin and streptomycin, and 2 mM L-Glutamine. Cells were sub-cultured by dilution at a ratio of 1:4. MDA-MB-468 cells were harvested by trypsinization and counted using a hemocytometer. Cells were resuspended in PBS at a concentration of 4×10^8 cells per mL. Cells were placed on ice and mixed with an equal volume of Matrigel (BD Biosciences CB-40234). Twenty-two (22) CB-17 SCID mice were inoculated sub-cutaneously in the left flank with 4×10^7 MDA-MB-468 cells. Treatment was initiated when the tumors reached a mean volume of ˜100 mm^3. […] Animals' weights and condition were recorded daily, and tumors were measured on Mondays, Wednesdays, and Fridays.

T1 sequence (O14980 whole entry): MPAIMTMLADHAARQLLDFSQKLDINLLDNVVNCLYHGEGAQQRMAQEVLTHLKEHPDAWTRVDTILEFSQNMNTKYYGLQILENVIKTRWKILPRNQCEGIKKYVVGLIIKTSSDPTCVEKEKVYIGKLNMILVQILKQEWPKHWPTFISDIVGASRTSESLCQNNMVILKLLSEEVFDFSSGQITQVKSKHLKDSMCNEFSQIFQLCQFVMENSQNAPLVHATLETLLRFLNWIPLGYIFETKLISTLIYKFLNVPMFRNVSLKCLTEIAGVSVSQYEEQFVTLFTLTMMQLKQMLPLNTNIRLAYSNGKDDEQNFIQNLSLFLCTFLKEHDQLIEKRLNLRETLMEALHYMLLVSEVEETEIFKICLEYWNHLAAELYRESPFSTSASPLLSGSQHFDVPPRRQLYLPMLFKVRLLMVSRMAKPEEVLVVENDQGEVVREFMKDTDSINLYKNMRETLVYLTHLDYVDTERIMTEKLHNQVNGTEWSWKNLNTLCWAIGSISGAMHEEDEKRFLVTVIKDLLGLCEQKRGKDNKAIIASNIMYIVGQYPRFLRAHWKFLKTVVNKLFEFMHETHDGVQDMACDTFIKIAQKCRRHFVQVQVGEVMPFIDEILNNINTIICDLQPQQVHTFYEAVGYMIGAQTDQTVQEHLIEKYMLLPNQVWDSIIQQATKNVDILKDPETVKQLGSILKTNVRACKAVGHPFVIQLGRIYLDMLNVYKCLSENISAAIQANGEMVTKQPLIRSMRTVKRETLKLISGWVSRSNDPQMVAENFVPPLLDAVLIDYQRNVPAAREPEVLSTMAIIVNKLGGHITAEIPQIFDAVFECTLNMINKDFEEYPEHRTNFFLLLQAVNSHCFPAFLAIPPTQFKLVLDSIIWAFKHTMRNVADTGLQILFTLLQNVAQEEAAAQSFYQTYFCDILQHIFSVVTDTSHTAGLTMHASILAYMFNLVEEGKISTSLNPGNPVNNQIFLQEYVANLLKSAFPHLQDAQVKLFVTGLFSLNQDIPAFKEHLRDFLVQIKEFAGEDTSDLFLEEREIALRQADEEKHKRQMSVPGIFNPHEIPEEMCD

- protein expression of XPO1 (XPO1): degraded XPO1 in a dose-dependent manner
Structure (SMILES): NC(=O)/C(=C/n1cnc(-c2cc(C(F)(F)F)cc(C(F)(F)F)c2)n1)c1cncnc1 [Compound 124, (E)-3-(3-(3,5-bis(trifluoromethyl)phenyl)-1H-1,2,4-triazol-1-yl)-2-(pyrimidin-5-yl)acrylamide]
- percentage of animals that showed clinical signs of arthritis ([1]; 20 mg/kg PO twice a week, study Day 6 (start of treatment)): 78%
- percentage of animals that showed clinical signs of arthritis ([1]; 20 mg/kg PO twice a week, study Day 18): 22%
- mean clinical score for all paws (arthritis scores) ([1]; 20 mg/kg or 40 mg/kg PO, compared to vehicle): reduced arthritis scores
- percentage of animals that showed clinical signs of arthritis ([1]; 40 mg/kg PO twice a week, study Day 6 (start of treatment)): 88%
- percentage of animals that showed clinical signs of arthritis ([1]; 40 mg/kg PO twice a week, study Day 18): 13%
- nuclear localization of XPO1 cargo proteins [2]: increased or complete nuclear localization of XPO1 cargoes
- mean tumor volume (Hep 3B xenograft; 5 or 15 mg/kg PO daily, SCID mice, compared to vehicle): mean tumor volume was reduced
- mean tumor volume compared with standard of care (Hep 3B xenograft; particularly 15 mg/kg PO daily, versus doxorubicin): compared favorably
- mean tumor volume (MDA-MB-468 xenograft): mean tumor volume was reduced
